Measured values published in ChEMBL document CHEMBL4828733, “Discovery and In Vivo Anti-inflammatory Activity Evaluation of a Novel Non-peptidyl Non-covalent Cathepsin C Inhibitor” (J Med Chem, 2021).

Assays:
[1] = Octanol/water partition coefficient, logP of compound at pH 7.4; format: physicochemical
[2] = MRT in Sprague-Dawley rat at 1 mg/kg, ip measured up to 24 hrs by LC-MS/MS analysis; format: ADME, organism-based; conditions: in vivo
[3] = Cmax in Sprague-Dawley rat at 1 mg/kg, ip measured up to 24 hrs by LC-MS/MS analysis; format: ADME, organism-based; set-up: route intraperitoneal, dose 1 mg/kg, time <=24; conditions: in vivo
[4] = AUC (0 to infinitive) in Sprague-Dawley rat at 1 mg/kg, ip measured up to 24 hrs by LC-MS/MS analysis; format: ADME, organism-based; set-up: route intraperitoneal, dose 1 mg/kg, time <=24; conditions: in vivo
[5] = Tmax in Sprague-Dawley rat at 10 mg/kg, po measured up to 24 hrs by LC-MS/MS analysis; format: ADME, organism-based; conditions: in vivo
[6] = MRT in Sprague-Dawley rat at 10 mg/kg, po measured up to 24 hrs by LC-MS/MS analysis; format: ADME, organism-based; conditions: in vivo
[7] = Cmax in Sprague-Dawley rat at 10 mg/kg, po measured up to 24 hrs by LC-MS/MS analysis; format: ADME, organism-based; set-up: route oral, dose 10 mg/kg, time <=24; conditions: in vivo
[8] = AUC (0 to infinitive) in Sprague-Dawley rat at 10 mg/kg, po measured up to 24 hrs by LC-MS/MS analysis; format: ADME, organism-based; set-up: route oral, dose 10 mg/kg, time <=24; conditions: in vivo
[9] = Oral bioavailability in Sprague-Dawley rat at 10 mg/kg measured up to 24 hrs by LC-MS/MS analysis; format: ADME, organism-based; conditions: in vivo
[10] = Acute toxicity in ICR mouse assessed as mortality rate at 1500 mg/kg, po administered as single dose measured after 1 week relative to control; format: organism-based; conditions: in vivo, time 1 weeks, read-out: Activity

logD [1]	Compound	also measured
1.87	CN1CCN(c2ccc(Nc3ncc(Cl)c(Nc4cccc(C(F)(F)F)c4)n3)nc2)CC1	MRT [2]: 1.22 h; Cmax [3]: 458 ng/mL; AUC [4]: 249.2 ng·h/mL; Tmax [5]: 2 h; MRT [6]: 2.68 h; Cmax [7]: 83.5 ng/mL; AUC(0-inf) [8]: 158 ng·h/mL; bioavailability [9]: 16.7%
2.18	CCN1CCN(c2ccc(Nc3ncc(Cl)c(Nc4cccc(C(F)(F)F)c4)n3)nc2)CC1	–
1.61	CN1CCN(c2ccc(Nc3ncc(Cl)c(Nc4cccc(C(F)(F)F)c4)n3)cn2)CC1	–
0.44	NC1CCN(c2ccc(Nc3ncc(Cl)c(Nc4cccc(C(F)(F)F)c4)n3)nc2)CC1	–
1.25	FC(F)(F)c1cccc(Nc2nc(Nc3ccc(N4CCNCC4)cn3)ncc2Cl)c1	–
1.46	CN1CCN(c2ccc(Nc3ncc(Cl)c(Nc4cccc(C(F)(F)F)c4)n3)cc2)CC1	–
1.26	CN1CCN(c2ccc(Nc3ncc(Cl)c(Nc4cccc(C(F)(F)F)c4)n3)nn2)CC1	–

The next lines start with the compound.

Compound	logD [1]	also measured
FC(F)(F)Oc1cccc(Nc2nc(Nc3ccccc3)ncc2Cl)c1	2.65	–
CN(C)C1CCN(c2ccc(Nc3ncc(Cl)c(Nc4cccc(C(F)(F)F)c4)n3)nc2)CC1	2.01	mortality at 168 h [10]: 70%
FC(F)(F)c1cccc(Nc2nc(Nc3ccc(-c4ccsc4)cn3)ncc2Cl)c1	2.03	–
FC(F)(F)c1cccc(Nc2nc(Nc3cccnn3)ncc2Cl)c1	2.26	–
FC(F)(F)c1cccc(Nc2nc(Nc3cccnc3)ncc2Cl)c1	1.26	–
FC(F)(F)c1cccc(Nc2nc(Nc3cncnc3)ncc2Cl)c1	2.01	–
CN1CCN(c2ncc(Nc3ncc(Cl)c(Nc4cccc(C(F)(F)F)c4)n3)cn2)CC1	1.89	–
FC(F)(F)c1cccc(Nc2nc(Nc3ccccn3)ncc2Cl)c1	1.4	–
FC(F)(F)c1cccc(Nc2nc(Nc3ccccc3)ncc2Cl)c1	2.46	–
